From patent US20210024542A1 (Torcept Therapeutics, Inc., priority 2018, published 2021)
Like-named read-outs stand apart in the source and are kept apart here.

Legend:
Type in all cases: cell-based, human
G-402 = experiment: OncoPanel cell proliferation assay, G-402; settings: for Relative cell count (%) Mean: G-402
Protocol: (§1) Cells were grown in RPMI 1640, 10% FBS, 2 mM L-alanyl-L-glutamine, 1 mM Na pyruvate, or a special medium. Cells were seeded into 384-well plates and incubated in a humidified atmosphere of 5% CO2 at 37° C. Compounds were added the day following cell seeding. At the same time, a time zero untreated cell plate was generated. After a 3-day incubation period, cells were fixed and stained to allow fluorescence imaging of nuclei. Compounds (1 mM stock solutions) were serially diluted in half-log steps from the highest test concentration ([…]), and assayed over 10 concentrations with a maximum assay concentration of 0.1% DMSO. Automated fluorescence microscopy was carried out using a Molecular Devices ImageXpress Micro XL high-content imager, and images were collected with a 4× objective. 16-bit TIFF images were acquired and analyzed with MetaXpress 5.1.0.41 software.
(§2) Cell proliferation was measured by the fluorescence intensity of an incorporated nuclear dye. The output is referred to as the relative cell count, where the measured nuclear intensity is transformed to percent of control (POC) using the following formula: […]
(§3) Cellular response parameters were calculated using nonlinear regression to a sigmoidal single-site dose response model:
(§4) Where y is a response measured at concentration x, A and B are the lower and upper limits of the response, C is the concentration at the response midpoint (EC50), and D is the Hill Slope (Ref. 1).
(§5) EC50 is the test compound concentration at the curve inflection point or half the effective response (parameter C of the fitted curve solution). GI50 is the concentration needed to reduce the observed growth by half (midway between the curve maximum and the time zero value). “Cell Count Activity Area” is an estimate of the integrated area above the curve (Barretina, et al. The Cancer Cell Line Encyclopedia enables predictive modelling of anticancer drug sensitivity. Nature 483: 603-607). […] In rare instances, values <0 or >10 may be observed. […] Curve-fitting, calculations, and report generation was performed using a custom data reduction engine and MathIQ based software (AIM).

NCIH446 = experiment: OncoPanel cell proliferation assay, NCIH446; settings: for Relative cell count (%) Mean: NCIH446
Protocol: as §1, §2, §3, §4, §5

A101D = experiment: OncoPanel cell proliferation assay, A101D
Protocol: as §1, §2, §3, §4, §5

CaOV3 = experiment: OncoPanel cell proliferation assay, CaOV3; settings: for Relative cell count (%) Mean: CaOV3
Protocol: as §1, §2, §3, §4, §5

MES-SA = experiment: OncoPanel cell proliferation assay, MES-SA
Protocol: as §1, §2, §3, §4, §5

NCI-H510A = experiment: OncoPanel cell proliferation assay, NCI-H510A
Protocol: as §1, §2, §3, §4, §5

[1] = Homo sapiens, 72 h, 3-day incubation, read-out: Cell Count EC50
[2] = Homo sapiens, 72 h, 3-day incubation, read-out: Cell Count GI50
[3] = Homo sapiens, 72 h, 3-day incubation, read-out: Cell Count IC50

Which “Cell Count Activity Area” value (G-402; G-402, scale 0-10) does the source give for `CO[C@H]1C[C@@H]2CC[C@@H](C)[C@@](O)(O2)C(=O)C(=O)N2CCCC[C@H]2C(=O)O[C@H]([C@H](C)C[C@@H]2C[C@@H]3C[C@H]2C[C@H]3O)CC(=O)[C@H](C)/C=C(\C)[C@@H](O)[C@@H](OC)C(=O)[C@H](C)C[C@H](C)/C=C/C=C/C=C/1C` [Formula I, 37R-hydroxynorbornylrapamycin] here?
Its value is 4.95.

What about the “Relative cell count (%) Mean” value (G-402; 1.00E+00 microM) of the same compound?
Its value is 31.5%.

And the “Relative cell count (%) Mean” value (G-402; 1.00E−01 microM)?
The value was 37.2%.

And the “Relative cell count (%) Mean” value (G-402; 1.00E−02 microM)?
The value was 41.4%.

What about the “Relative cell count (%) Mean” value (G-402; 1.00E−03 microM) of the same compound?
Its value is 49.2%.

What about the “Relative cell count (%) Mean” value (G-402; 1.01E−04 microM) of the same compound?
Its value is 70.9%.

And the “Relative cell count (%) Mean” value (G-402; 3.16E−01 microM)?
Its value is 34.9%.

And the “Relative cell count (%) Mean” value (G-402; 3.17E−02 microM)?
Its value is 46.6%.

And the “Relative cell count (%) Mean” value (G-402; 3.17E−03 microM)?
Its value is 48.8%.

What about the “Relative cell count (%) Mean” value (G-402; 3.18E−04 microM) of the same compound?
Its value is 54.9%.

What about the “Relative cell count (%) Mean” value (G-402; 3.18E−05 microM) of the same compound?
Its value is 89.9%.

And the EC50 (G-402; Homo sapiens, 72 h, G-402, 3-day incubation, read-out: Cell Count EC50)?
The EC50 was 0.133 nM.

What about the GI50 (G-402; Homo sapiens, 72 h, G-402, 3-day incubation, read-out: Cell Count GI50) of the same compound?
The GI50 was 0.332 nM.

What about the IC50 (G-402; Homo sapiens, 72 h, G-402, 3-day incubation, read-out: Cell Count IC50) of the same compound?
The IC50 was 0.956 nM.

And the EC50 (NCIH446; Homo sapiens, NCI-H446, 72 h, NCIH446, 3-day incubation, read-out: Cell Count EC50)?
The EC50 was 1.37 nM.

What about the GI50 (NCIH446; Homo sapiens, NCI-H446, 72 h, NCIH446, 3-day incubation, read-out: Cell Count GI50) of the same compound?
Its GI50 is 75.5 nM.

What about the IC50 (NCIH446; Homo sapiens, NCI-H446, 72 h, NCIH446, 3-day incubation, read-out: Cell Count IC50) of the same compound?
The IC50 was > 1000 nM.

And the “Cell Count Activity Area” value (NCIH446; NCIH446, scale 0-10)?
The value was 1.96.

What about the “Relative cell count (%) Mean” value (NCIH446; 1.00E+00 microM) of the same compound?
The value was 69.7%.

And the “Relative cell count (%) Mean” value (NCIH446; 1.00E−01 microM)?
Its value is 77.0%.

And the “Relative cell count (%) Mean” value (NCIH446; 1.00E−02 microM)?
Its value is 75.9%.

And the “Relative cell count (%) Mean” value (NCIH446; 1.00E−03 microM)?
The value was 88.1%.

What about the “Relative cell count (%) Mean” value (NCIH446; 1.01E−04 microM) of the same compound?
The value was 102.8%.

And the “Relative cell count (%) Mean” value (NCIH446; 3.16E−01 microM)?
The value was 71.2%.

What about the “Relative cell count (%) Mean” value (NCIH446; 3.17E−02 microM) of the same compound?
Its value is 85.0%.

What about the “Relative cell count (%) Mean” value (NCIH446; 3.17E−03 microM) of the same compound?
The value was 82.3%.

What about the “Relative cell count (%) Mean” value (NCIH446; 3.18E−04 microM) of the same compound?
The value was 100.1%.

And the “Relative cell count (%) Mean” value (NCIH446; 3.18E−05 microM)?
The value was 99.4%.

What about the “Relative cell count (%) Mean” value (A101D; 1.00E+00 microM) of the same compound?
The value was 50.8%.

And the “Relative cell count (%) Mean” value (A101D; 1.00E−01 microM)?
Its value is 57.8%.

What about the “Relative cell count (%) Mean” value (A101D; 1.00E−02 microM) of the same compound?
The value was 54.7%.

What about the “Relative cell count (%) Mean” value (A101D; 1.00E−03 microM) of the same compound?
The value was 66.8%.

And the “Relative cell count (%) Mean” value (A101D; 1.01E−04 microM)?
The value was 90.7%.

And the “Relative cell count (%) Mean” value (A101D; 3.16E−01 microM)?
Its value is 52.8%.

And the “Relative cell count (%) Mean” value (A101D; 3.17E−02 microM)?
Its value is 58.0%.

And the “Relative cell count (%) Mean” value (A101D; 3.17E−03 microM)?
Its value is 61.9%.

And the “Relative cell count (%) Mean” value (A101D; 3.18E−04 microM)?
The value was 78.1%.

What about the “Relative cell count (%) Mean” value (A101D; 3.18E−05 microM) of the same compound?
Its value is 95.8%.

What about the EC50 (A101D; [1]) of the same compound?
Its EC50 is 0.322 nM.

What about the GI50 (A101D; [2]) of the same compound?
Its GI50 is 0.999 nM.

And the IC50 (A101D; [3])?
The IC50 was > 1000 nM.

And the “Cell Count Activity Area” value (A101D; scale 0-10)?
The value was 3.52.

And the “Cell Count Activity Area” value (CaOV3; CaOV3, scale 0-10)?
The value was 2.82.

What about the “Relative cell count (%) Mean” value (CaOV3; 1.00E+00 microM) of the same compound?
The value was 54.4%.

What about the “Relative cell count (%) Mean” value (CaOV3; 1.00E−01 microM) of the same compound?
The value was 58.3%.

And the “Relative cell count (%) Mean” value (CaOV3; 1.00E−02 microM)?
Its value is 64.8%.

What about the “Relative cell count (%) Mean” value (CaOV3; 1.00E−03 microM) of the same compound?
The value was 75.3%.

What about the “Relative cell count (%) Mean” value (CaOV3; 1.01E−04 microM) of the same compound?
Its value is 91.0%.

And the “Relative cell count (%) Mean” value (CaOV3; 3.16E−01 microM)?
The value was 57.1%.

What about the “Relative cell count (%) Mean” value (CaOV3; 3.17E−02 microM) of the same compound?
The value was 59.5%.

And the “Relative cell count (%) Mean” value (CaOV3; 3.17E−03 microM)?
Its value is 68.5%.

What about the “Relative cell count (%) Mean” value (CaOV3; 3.18E−04 microM) of the same compound?
Its value is 85.0%.

And the “Relative cell count (%) Mean” value (CaOV3; 3.18E−05 microM)?
The value was 92.8%.

What about the EC50 (CaOV3; Homo sapiens, Caov-3, 72 h, CaOV3, 3-day incubation, read-out: Cell Count EC50) of the same compound?
Its EC50 is 0.976 nM.

And the GI50 (CaOV3; Homo sapiens, Caov-3, 72 h, CaOV3, 3-day incubation, read-out: Cell Count GI50)?
The GI50 was 9.68 nM.

And the IC50 (CaOV3; Homo sapiens, Caov-3, 72 h, CaOV3, 3-day incubation, read-out: Cell Count IC50)?
Its IC50 is > 1000 nM.

What about the “Relative cell count (%) Mean” value (MES-SA; 1.00E+00 microM) of the same compound?
The value was 27.9%.

And the “Relative cell count (%) Mean” value (MES-SA; 1.00E−01 microM)?
Its value is 28.9%.

And the “Relative cell count (%) Mean” value (MES-SA; 1.00E−02 microM)?
Its value is 32.0%.

And the “Relative cell count (%) Mean” value (MES-SA; 1.00E−03 microM)?
Its value is 45.0%.

What about the “Relative cell count (%) Mean” value (MES-SA; 1.01E−04 microM) of the same compound?
The value was 93.8%.

And the “Relative cell count (%) Mean” value (MES-SA; 3.16E−01 microM)?
The value was 26.8%.

And the “Relative cell count (%) Mean” value (MES-SA; 3.17E−02 microM)?
Its value is 28.6%.

And the “Relative cell count (%) Mean” value (MES-SA; 3.17E−03 microM)?
The value was 37.3%.

What about the “Relative cell count (%) Mean” value (MES-SA; 3.18E−04 microM) of the same compound?
The value was 64.3%.

What about the “Relative cell count (%) Mean” value (MES-SA; 3.18E−05 microM) of the same compound?
Its value is 98.1%.

And the EC50 (MES-SA; [1])?
The EC50 was 0.322 nM.

And the GI50 (MES-SA; [2])?
Its GI50 is 0.495 nM.

And the IC50 (MES-SA; [3])?
Its IC50 is 0.644 nM.

And the “Cell Count Activity Area” value (MES-SA; scale 0-10)?
Its value is 5.42.

And the “Relative cell count (%) Mean” value (NCI-H510A; 1.00E+00 microM)?
The value was 66.2%.

What about the “Relative cell count (%) Mean” value (NCI-H510A; 1.00E−01 microM) of the same compound?
The value was 62.8%.

And the “Relative cell count (%) Mean” value (NCI-H510A; 1.00E−02 microM)?
The value was 69.5%.

What about the “Relative cell count (%) Mean” value (NCI-H510A; 1.00E−03 microM) of the same compound?
Its value is 68.9%.

What about the “Relative cell count (%) Mean” value (NCI-H510A; 1.01E−04 microM) of the same compound?
Its value is 77.7%.

What about the “Relative cell count (%) Mean” value (NCI-H510A; 3.16E−01 microM) of the same compound?
The value was 66.3%.

And the “Relative cell count (%) Mean” value (NCI-H510A; 3.17E−02 microM)?
Its value is 64.7%.

And the “Relative cell count (%) Mean” value (NCI-H510A; 3.17E−03 microM)?
The value was 72.2%.

What about the “Relative cell count (%) Mean” value (NCI-H510A; 3.18E−04 microM) of the same compound?
The value was 70.5%.

What about the “Relative cell count (%) Mean” value (NCI-H510A; 3.18E−05 microM) of the same compound?
Its value is 75.7%.

And the EC50 (NCI-H510A; [1])?
The EC50 was 3.99 pM.

And the GI50 (NCI-H510A; [2])?
The GI50 was 0.83 nM.

And the IC50 (NCI-H510A; [3])?
The IC50 was > 1000 nM.

What about the EC50 (NCI-H510A; Homo sapiens, Table 4 summary, Small cell lung cancer, read-out: EC50) of the same compound?
Its EC50 is 4 pM.
